Reference: patent publication US7320978B2, “Oxazole derivatives, preparation and therapeutic use thereof” (Sanofi-Aventis, priority 2004, dated 2008)

With `CC(=O)C1(c2ccccc2)CCN(C(=O)c2nc(-c3ccc(Cl)cc3)c(-c3ccc(Cl)cc3Cl)o2)CC1` the melting point was 175 °C.
